Laboratory results as given in patent publication US8470828B2, “Anellated pyridine compounds” (Hoffmann-La Roche Inc., priority 2010, dated 2013).

Assays:
human 5-HT2A receptor = human 5-HT2A receptor (Homo sapiens, UniProt P28223); assay: Radioligand binding to cloned human 5-HT2A receptor expressed in HEK-293 EBNA cells ([3H]-ketanserin)
Procedure: (§1) HEK293 EBNA cells were transiently transfected with expression plasmids encoding for the human D2 or D3 or for the human 5-HT2A receptor, respectively. The cells were harvested 48 h post-transfection, washed three times with cold PBS and stored at −80° C. prior to use. The pellet was suspended in cold 50 mM Tris-HCl buffer comprising 10 mM EDTA (pH 7.4) and was homogenized with a Polytron (Kinematica A G, Basel, Switzerland) for 20-30 sec at 12.000 rpm. After centrifugation at 48.000×g for 30 min at 4° C., the pellet was resuspended in cold 10 mM Tris-HCl buffer comprising 0.1 mM EDTA (pH 7.4), homogenized, and centrifuged as above. This pellet was further resuspended in a smaller volume of ice cold 10 mM Tris-HCl buffer comprising 0.1 mM EDTA (pH 7.4) and homogenized with a Polytron for 20-30 sec at 12.000 rpm. The protein content of this homogenate was determined with the Bio-Rad (Bradford) Protein Assay (Biorad Laboratories GmbH, München, Germany) according to the instructions of the manufacturer using gamma globulin as the standard. This homogenate was stored at −80° C. in aliquots and thawed immediately prior to use.
(§2) Aliquots of membrane preparations were thawed at RT, resupended in assay buffer (D2, D3: 50 mM Tris-HCl, 120 mM NaCl, 5 mM MgCl2, 1 mM EDTA, 5 mM KCl, 1.5 mM CaCl2, pH=7.4; 5-HT2A: 50 mM Tris-HCl, 10 mM MgCl2, 1 mM EGTA, pH=7.4), homogenized with a Polytron for 20-30 sec at 12.000 rpm and adjusted to a final concentration of approximately 7.5 μg protein/well (D2, D3) and 15 μg protein/well (5-HT2A), respectively.
(§3) The binding affinity (Ki) of the compounds was determined using radioligand binding. Membranes were incubated in a total volume of 200 μl with a fixed concentration of radioligand (final concentration approximately 0.7 nM [^3H]-spiperone for D2, 0.5 nM [^3H]-spiperone for D3, and 1.1 nM [^3H]-ketanserin for 5-HT2A) and ten concentrations of test compound in ranging between 10 μM-0.1 nM for 1 h at RT. At the end of the incubation, the reaction mixtures were filtered on to unifilter 96-well white microplates with bonded GF/C filters (Packard BioScience, Zürich, Switzerland; preincubated for 1 h in 0.1% polyethylenimine (PEI) in assay buffer) with a Filtermate 196 harvester (Packard BioScience) and washed 3 times with cold assay buffer. The nonspecific binding was determined with equally composed reaction mixtures in the presence of 10 μM unlabelled spiperone. Per well 45 μl of Microscint 40 (Perkin Elmer, Schwerzenbach, Switzerland) was added, plates for sealed, shaken for 20 min and counted for 3 min on a Topcount Microplate Scintillation Counter (Can berra Packard S A, Zürich, Switzerland) with quenching correction.
(§4) The CPM value for each duplicate of a concentration of competing compound was averaged (y1), then the % specific binding was calculated according to the equation (((y1−non-specific)/(total binding−non-specific))×100). Graphs were plotted with the % specific binding using XLfit, a curve fitting program that iteratively plots the data using Levenberg-Marquardt algorithm. The single site competition analysis equation used was y=A+((B−A)/(1+((x/C)D))), where y is the % specific binding, A is the minimum y, B is the maximum y, C is the IC50, x is the log 10 of the concentration of the competing compound and D is the slope of the curve (the Hill Coefficient). […] The affinity constant (Ki) was calculated using the Cheng-Prusoff equation Ki=(IC50/1+([L]/Kd), where [L] is the concentration of radioligand and Kd is the dissociation constant of the radioligand at the receptor as determined by the saturation isotherm.

human D2 receptor = biological target: T1, human D2 receptor (Homo sapiens, UniProt P14416); assay: Radioligand binding to cloned human D2 receptor expressed in HEK-293 EBNA cells ([3H]-spiperone); conditions: HEK293 EBNA cell membranes, approximately 0.7 nM [3H]-spiperone, 1 h at RT
T1 construct: expressed in transfected cells; host or cells: HEK293 EBNA cells, transient transfection; membrane preparation
T1 sequence (P14416 whole entry): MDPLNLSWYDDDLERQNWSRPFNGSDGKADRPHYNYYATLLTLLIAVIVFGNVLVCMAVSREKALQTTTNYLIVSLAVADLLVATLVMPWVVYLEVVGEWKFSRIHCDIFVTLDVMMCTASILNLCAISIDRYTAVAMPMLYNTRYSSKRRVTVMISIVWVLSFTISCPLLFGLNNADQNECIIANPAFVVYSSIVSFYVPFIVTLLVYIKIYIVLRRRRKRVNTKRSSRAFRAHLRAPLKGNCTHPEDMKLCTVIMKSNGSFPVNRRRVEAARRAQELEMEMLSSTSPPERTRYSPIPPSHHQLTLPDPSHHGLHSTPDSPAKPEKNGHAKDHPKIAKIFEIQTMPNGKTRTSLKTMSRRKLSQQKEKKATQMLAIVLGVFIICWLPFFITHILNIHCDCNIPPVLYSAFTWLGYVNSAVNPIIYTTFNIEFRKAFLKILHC
Procedure: as §1, §2, §3, §4

human D3 receptor = human D3 receptor (Homo sapiens, UniProt P35462); assay: Radioligand binding to cloned human D3 receptor expressed in HEK-293 EBNA cells ([3H]-spiperone)
Chain of human D3 receptor (P35462 whole entry): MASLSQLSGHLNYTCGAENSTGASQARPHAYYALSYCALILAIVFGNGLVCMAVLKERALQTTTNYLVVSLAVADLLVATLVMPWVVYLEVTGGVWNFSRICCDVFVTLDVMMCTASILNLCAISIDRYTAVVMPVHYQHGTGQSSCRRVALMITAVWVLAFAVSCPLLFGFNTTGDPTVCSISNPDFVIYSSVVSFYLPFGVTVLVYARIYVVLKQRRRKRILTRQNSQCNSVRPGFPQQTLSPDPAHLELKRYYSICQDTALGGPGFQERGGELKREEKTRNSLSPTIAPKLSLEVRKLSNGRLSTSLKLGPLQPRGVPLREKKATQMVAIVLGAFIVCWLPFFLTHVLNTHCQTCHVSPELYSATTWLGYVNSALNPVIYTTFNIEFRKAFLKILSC
Procedure: as §1, §2, §3, §4

Chain of human 5-HT2A receptor (P28223 whole entry): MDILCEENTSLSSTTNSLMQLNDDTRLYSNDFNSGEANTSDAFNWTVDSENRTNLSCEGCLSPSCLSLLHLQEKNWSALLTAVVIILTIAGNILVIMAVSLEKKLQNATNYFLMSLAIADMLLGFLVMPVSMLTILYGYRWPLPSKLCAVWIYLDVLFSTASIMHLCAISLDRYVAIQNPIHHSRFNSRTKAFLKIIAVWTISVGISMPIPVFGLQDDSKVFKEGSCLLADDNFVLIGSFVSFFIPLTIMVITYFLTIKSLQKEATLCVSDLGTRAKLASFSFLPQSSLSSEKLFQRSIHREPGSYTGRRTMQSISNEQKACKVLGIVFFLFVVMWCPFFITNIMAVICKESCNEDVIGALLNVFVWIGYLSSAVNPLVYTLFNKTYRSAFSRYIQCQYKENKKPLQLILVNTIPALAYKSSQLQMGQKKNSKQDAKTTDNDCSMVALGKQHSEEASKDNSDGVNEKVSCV

Row | SMILES | Ki (human 5-HT2A receptor) | Ki (human D2 receptor) | melting point | Ki (human D3 receptor)
1 | O=C(N[C@H]1CC[C@H](CCN2CCN(c3nccc4c3OCC4)CC2)CC1)c1ccc(-c2cccnc2)cc1 [Example 71, trans-N-(4-{2-[4-(2,3-Dihydro-furo[2,3-c]pyridin-7-yl)-piperazin-1-yl]-ethyl}-cyclohexyl)-4-pyridin-3-yl-benzamide] | 19.1 nM | 270 nM | 235 °C | 7.61 nM
2 | N#Cc1ccc(C(=O)N[C@H]2CC[C@H](CCN3CCN(c4nccc5c4OCC5)CC3)CC2)cc1 [Example 72, trans-4-Cyano-N-(4-{2-[4-(2,3-dihydro-furo[2,3-c]pyridin-7-yl)-piperazin-1-yl]-ethyl}-cyclohexyl)-benzamide] | 24.6 nM | 633 nM | 262.5 °C | 17.8 nM
3 | O=C(N[C@H]1CC[C@H](CCN2CCN(c3nccc4c3OCC4)CC2)CC1)c1ccc(N2CCOCC2)nc1 [Example 73, trans-N-(4-{2-[4-(2,3-Dihydro-furo[2,3-c]pyridin-7-yl)-piperazin-1-yl]-ethyl}-cyclohexyl)-6-morpholin-4-yl-nicotinamide] | 22.4 nM | 479 nM | 231 °C | 15 nM
4 | O=C(N[C@H]1CC[C@H](CCN2CCN(c3nccc4c3OCC4)CC2)CC1)c1ccc(N2CCS(=O)(=O)CC2)cc1 [Example 74, trans-N-(4-{2-[4-(2,3-Dihydro-furo[2,3-c]pyridin-7-yl)-piperazin-1-yl]-ethyl}-cyclohexyl)-4-(1,1-dioxo-1λ6-thiomorpholin-4-yl)-benzamide] | 23.1 nM | 145 nM | 260.5 °C | 9.47 nM
5 | O=C(Cc1noc2ccccc12)N[C@H]1CC[C@H](CCN2CCN(c3nccc4c3OCC4)CC2)CC1 [Example 75, trans-2-Benzo[d]isoxazol-3-yl-N-(4-{2-[4-(2,3-dihydro-furo[2,3-c]pyridin-7-yl)-piperazin-1-yl]-ethyl}-cyclohexyl)-acetamide] | 45.7 nM | 628 nM | 211 °C | 6.28 nM
6 | CC(C)(C)Oc1ccc(C(=O)N[C@H]2CC[C@H](CCN3CCN(c4nccc5c4OCC5)CC3)CC2)cc1 [Example 76, trans-4-tert-Butoxy-N-(4-{2-[4-(2,3-dihydro-furo[2,3-c]pyridin-7-yl)-piperazin-1-yl]-ethyl}-cyclohexyl)-benzamide] | 44.3 nM | 814 nM | 168.5 °C | 33.3 nM
7 | O=C(N[C@H]1CC[C@H](CCN2CCN(c3nccc4c3OCC4)CC2)CC1)c1ccc2ncccc2c1 [Example 77, Quinoline-6-carboxylic acid trans-(4-{2-[4-(2,3-dihydro-furo[2,3-c]pyridin-7-yl)-piperazin-1-yl]-ethyl}-cyclohexyl)-amide] | 35.4 nM | 432 nM | 211.5 °C | 9.44 nM
8 | O=C(N[C@H]1CC[C@H](CCN2CCN(c3nccc4c3OCC4)CC2)CC1)c1cnc(N2CCOCC2)cn1 [Example 78, 5-Morpholin-4-yl-pyrazine-2-carboxylic acid trans-(4-{2-[4-(2,3-dihydro-furo[2,3-c]pyridin-7-yl)-piperazin-1-yl]-ethyl}-cyclohexyl)-amide] | 29.6 nM | 670 nM | 200.5 °C | 42.5 nM
9 | O=C(N[C@H]1CC[C@H](CCN2CCN(c3nccc4c3OCC4)CC2)CC1)C1(O)CCC1 [Example 79, 1-Hydroxy-cyclobutanecarboxylic acid trans-(4-{2-[4-(2,3-dihydro-furo[2,3-c]pyridin-7-yl)-piperazin-1-yl]-ethyl}-cyclohexyl)-amide] | 15.7 nM | 623 nM | 250 °C | 37.5 nM
